In US20220002279A1, “NOVEL IMIDAZOLE DERIVATIVE” (priority 2018, published 2022):
Converted amounts (≈) assume the structure as drawn. Read-outs that look alike come from different tables or passages of the source.

How the values were obtained:
[1] = system: Pseudomonas aeruginosa strain ATCC27853; assay: Antimicrobial activity, MIC by broth microdilution; assay type: cell-based; settings: ATCC27853, 18 h, cation-adjusted Mueller-Hinton broth, about 5×10^5 CFU/mL, 35° C., about 18 hours, read-out: MIC Pseudomonas aeruginosa ATCC27853
Outline: (§1)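 MIC read by eye as the lowest drug level lacking visible growth after roughly 18 h at 35° C. Cells from heart infusion agar, set to McFarland 0.5 and diluted, were inoculated at about 5×10^5 CFU/mL into cation-adjusted Mueller-Hinton broth with compound, per adapted CLSI microdilution.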

[2] = system: Klebsiella pneumoniae strain ATCC13883; assay: Antimicrobial activity, MIC by broth microdilution; assay type: cell-based; settings: ATCC13883, cation-adjusted Mueller-Hinton broth, about 5×10^5 CFU/mL, 35° C., about 18 hours, read-out: MIC Klebsiella pneumoniae ATCC13883
Outline: as §1

[3] = biological target: T1, Pseudomonas aeruginosa LpxC enzyme (Pseudomonas aeruginosa, UniProt P47205); assay: Inhibitory activity on Pseudomonas aeruginosa LpxC enzyme (fluorescamine method); assay type: biochemical; settings: fluorescamine detection; 3.6 nmol/L enzyme, 20 μmol/L substrate, pH 8.0, 60 min
T1 construct: made in house; host or cells: Escherichia coli
T1 sequence (P47205 1-303): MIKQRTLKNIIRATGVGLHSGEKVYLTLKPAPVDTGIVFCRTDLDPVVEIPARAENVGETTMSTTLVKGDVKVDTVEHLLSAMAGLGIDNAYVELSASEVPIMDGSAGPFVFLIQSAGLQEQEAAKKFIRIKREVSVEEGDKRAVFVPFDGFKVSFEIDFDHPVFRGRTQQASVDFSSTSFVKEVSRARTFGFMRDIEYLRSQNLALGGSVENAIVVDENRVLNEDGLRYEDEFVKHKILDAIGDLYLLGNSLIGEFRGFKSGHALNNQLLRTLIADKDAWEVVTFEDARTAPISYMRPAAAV
Excerpt: Test Example 1 Evaluation of the Inhibitory Activity on Pseudomonas aeruginosa LpxC Enzyme (Fluoresamine Method)
To assay the activity of Pseudomonas aeruginosa LpxC enzyme, LpxC was reacted with its substrate, UDP-3-O-(R-3-hydroxydecanoyl)-N-acetylglucosamine, and the amount of the reaction product was quantified by the amino groups present in the product.
Specifically, to 3.6 nmol/L Pseudomonas aeruginosa LpxC enzyme (as acquired by preparing chromosomal DNA from Pseudomonas aeruginosa, obtaining the Pseudomonas aeruginosa LpxC genes by PCR (polymerase chain reaction) using LpxC specific primer, and incorporating the genes into a vector, followed by expression using Escherichia coli), 20 μmol/L UDP-3-O-(R-3-hydroxydecanoyl)-N-acetylglucosamine (Carbosynth) was added, and the mixture was incubated at room temperature for 60 minutes. This reaction was performed in a 40 mmol/L-HEPES buffer solution (pH 8.0) containing 0.02% Brij 35 and 25 nmol/L-zinc chloride. The reaction was terminated by the addition of 1.0 mg/mL-fluorescamine dissolved in a solvent obtained by mixing an equal amount of acetonitrile and dimethylformamide with the reaction mixture, and then, a 0.2 mol/L-sodium phosphate buffer solution (pH 8.0) was added thereto, and the amount of the reaction product was detected at an excitation wavelength/fluorescence wavelength=390 nm/495 nm. An inhibition curve was obtained by performing the aforementioned reaction in the presence of various concentrations of test compounds. From this inhibition curve, the concentration of test compound at which the amount of the reaction product was suppressed by 50% (IC50 value) was determined, which was used as an index for the inhibitory activity on Pseudomonas aeruginosa LpxC enzyme.

[4] = biological target: T2, Escherichia coli LpxC enzyme (Escherichia coli, UniProt P0A725); assay: Inhibitory activity on Escherichia coli LpxC enzyme (LCMS method); assay type: biochemical
T2 construct: made in house; host or cells: Escherichia coli
T2 sequence (P0A725 1-305): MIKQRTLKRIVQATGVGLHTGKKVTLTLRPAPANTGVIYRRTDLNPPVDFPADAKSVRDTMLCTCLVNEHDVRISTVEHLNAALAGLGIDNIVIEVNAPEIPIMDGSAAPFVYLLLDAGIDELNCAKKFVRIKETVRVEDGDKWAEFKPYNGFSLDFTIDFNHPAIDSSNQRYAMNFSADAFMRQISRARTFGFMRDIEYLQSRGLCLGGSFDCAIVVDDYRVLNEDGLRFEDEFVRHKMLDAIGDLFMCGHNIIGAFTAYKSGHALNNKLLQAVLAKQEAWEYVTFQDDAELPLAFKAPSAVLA
Excerpt: Test Example 3 Evaluation of the Inhibitory Activity on Escherichia coli LpxC Enzyme (LCMS Method)
To assay the activity of Escherichia coli LpxC enzyme, LpxC was reacted with its substrate, UDP-3-O-(R-3-hydroxymyristoyl)-N-acetylglucosamine, and the amount of the reaction product was quantified by liquid chromatography tandem mass spectrometry.
Specifically, to 3.1 nmol/L Escherichia coli LpxC enzyme (as acquired by preparing chromosomal DNA from Escherichia coli, obtaining the Escherichia coli LpxC genes by PCR (polymerase chain reaction) using LpxC specific primer, and incorporating the genes into a vector, followed by expression using Escherichia coli), 20 μmol/L UDP-3-O-(R-3-hydroxymyristoyl)-N-acetylglucosamine (Alberta) was added, and the mixture was incubated at room temperature for 120 minutes. This reaction was performed in a 40 mmol/L-2-morpholinoethanesulfonic acid buffer solution (pH 6.5) containing 0.02% Brij 35, 25 nmol/L-zinc chloride, and 80 μmol/L-dithiothreitol. The reaction was terminated by the addition of acetonitrile containing 25 μmol/L-UDP-N-acetylglucosamine as an internal standard to the reaction mixture. Centrifugation was performed and the amount of the substrate and the reaction product in the supernatant was detected by liquid chromatography tandem mass spectrometry. An inhibition curve was obtained by performing the aforementioned reaction in the presence of various concentrations of test compounds. From this inhibition curve, the concentration of test compound at which the amount of the reaction product was suppressed by 50% (IC50 value) was determined, which was used as an index for the inhibitory activity on Escherichia coli LpxC enzyme.

[5] = system: Escherichia coli strain ATCC25922; assay: Antimicrobial activity, MIC by broth microdilution; assay type: cell-based; settings: ATCC25922, 18 h, cation-adjusted Mueller-Hinton broth, about 5×10^5 CFU/mL, 35° C., about 18 hours, read-out: MIC Escherichia coli ATCC25922
Outline: as §1

[6] = LC-MS/MS detection, 3.1 nmol/L enzyme, 20 μmol/L substrate, pH 6.5, 120 min, read-out: IC50 (inhibitory activity on Escherichia coli LpxC enzyme, LCMS method)

Structure (SMILES) | MIC [1] [µg/mL] | MIC [2] [µg/mL] | IC50 [3] [nM] | IC50 [4, 6] [nM] | IC50 [4] [nM] | MIC [5] [µg/mL]
C[C@H](O)c1nccn1Cc1cc(-c2ccc(C#CC3CC3CN)cc2)on1 (stereo in doubt) [Compound 8, (1S)-1-(1-{[5-(4-{[trans-2-(aminomethyl)cyclopropyl]ethynyl}phenyl)-1,2-oxazol-3-yl]methyl}-1H-imidazol-2-yl)ethan-1-ol] | 16 (≈ 44.1 µM) | 64 (≈ 177 µM) | 30.5 | 67.8 | – | –
C[C@H](O)c1nccn1[C@H](CN)c1cc(-c2ccc(C#CCCCO)cc2)on1 [Compound 18, 5-(4-{3-[(1R)-2-Amino-1-{2-[(1S)-1-hydroxyethyl]-1H-imidazol-1-yl}ethyl]-1,2-oxazol-5-yl}phenyl)pent-4-yn-1-ol] | 16 (≈ 42.1 µM) | 8 (≈ 21 µM) | 6.04 | – | 69.7 | –
C[C@H](O)c1nccn1[C@H](CN)c1cc(-c2ccc(C#CC34CC(N)(C3)C4)cc2)on1 [Compound 20, (1S)-1-{1-[(1R)-2-amino-1-(5-{4-[(3-aminobicyclo[1.1.1]pentan-1-yl)ethynyl]phenyl}-1,2-oxazol-3-yl)ethyl]-1H-imidazol-2-yl}ethan-1-ol] | 4 (≈ 9.91 µM) | 2 (≈ 4.96 µM) | – | 279 | – | 0.5 (≈ 1.24 µM)
C[C@H](O)c1nccn1[C@H](CN)c1cc(-c2ccc(C#CC3(N)CC3)cc2)on1 [Compound 21, (1S)-1-{1-[(1R)-2-amino-1-(5-(4-[(1-aminocyclopropyl)ethynyl]phenyl}-1,2-oxazol-3-yl)ethyl]-1H-imidazol-2-yl}ethan-1-ol] | 32 (≈ 84.8 µM) | 8 (≈ 21.2 µM) | – | 282 | – | 2 (≈ 5.3 µM)
C[C@H](O)c1nccn1[C@H](CN)c1cc(-c2ccc(C#C[C@@H]3[C@H]4CN(CCO)C[C@@H]34)cc2)on1 [Compound 22, (1S)-1-(1-{(1R)-2-Amino-1-[5-(4-{[(1R,5S,6s)-3-(2-hydroxyethyl)-3-azabicyclo[3.1.0]hexan-6-yl]ethynyl}phenyl)-1,2-oxazol-3-yl]ethyl}-1H-imidazol-2-yl)ethan-1-ol] | 2 (≈ 4.47 µM) | 4 (≈ 8.94 µM) | – | 655 | – | 2 (≈ 4.47 µM)
C[C@H](O)c1nccn1Cc1cc(-c2ccc(C#CC3CC(N)(C#N)C3)cc2)on1 (stereo partly drawn) [Compound 24, 1-Amino-3-({4-[3-({2-[(1S)-1-hydroxyethyl]-1H-imidazol-1-yl}methyl)-1,2-oxazol-5-yl]phenyl}ethynyl)cyclobutane-1-carbonitrile] | 128 (≈ 330 µM) | 4 (≈ 10.3 µM) | – | < 37 | – | 2 (≈ 5.16 µM)
C[C@H](O)c1nccn1Cc1cc(-c2ccc(C#CC3CC(N)(C(N)=O)C3)cc2)on1 (stereo partly drawn) [Compound 25, 1-Amino-3-({4-[3-({2-[(1S)-1-hydroxyethyl]-1H-imidazol-1-yl}methyl)-1,2-oxazol-5-yl]phenyl}ethynyl)cyclobutane-1-carboxamide] | 32 (≈ 78.9 µM) | 8 (≈ 19.7 µM) | – | 52.2 | – | 2 (≈ 4.93 µM)
C[C@H](O)c1nccn1Cc1cc(-c2ccc(C#CC3(N)CC3)cc2)no1 [Compound 27, (1S)-1-{1-[(3-(4-[(1-aminocyclopropyl)ethynyl]phenyl}-1,2-oxazol-5-yl)methyl]-1H-imidazol-2-yl}ethan-1-ol] | > 128 | 4 (≈ 11.5 µM) | – | 193 | – | 1 (≈ 2.87 µM)
C[C@H](O)c1nccn1Cc1cc(-c2ccc(C#CC34CC(N)(C3)C4)cc2)no1 [Compound 28, (1S)-1-{1-[(3-(4-[(3-aminobicyclo[1.1.1]pentane-1-yl)ethynyl]phenyl}-1,2-oxazol-5-yl)methyl]-1H-imidazol-2-yl}ethan-1-ol] | 64 (≈ 171 µM) | 2 (≈ 5.34 µM) | – | 64.6 | – | 0.5 (≈ 1.34 µM)
C[C@H](O)c1nccn1Cc1cc(-c2ccc(C#CC3(N)CCOCC3)cc2)on1 [Compound 29, (1S)-1-{1-[(5-{4-[(4-aminooxan-4-yl)ethynyl]phenyl}-1,2-oxazol-3-yl)methyl]-1H-imidazol-2-yl}ethan-1-ol] | > 128 | 128 (≈ 326 µM) | – | > 3000 | – | 64 (≈ 163 µM)
C[C@H](O)c1nccn1Cc1cc(-c2ccc(C#CC(C)(C)N)cc2)on1 [Compound 33] | > 128 | 64 (≈ 183 µM) | – | > 3000 | – | 32 (≈ 91.3 µM)
C[C@H](O)c1nccn1Cc1cc(-c2ccc(C#CC3(N)COC3)cc2)on1 [Compound 40, (1S)-1-{1-[(5-(4-[(3-aminooxetan-3-yl)ethynyl]phenyl}-1,2-oxazol-3-yl)methyl]-1H-imidazol-2-yl}ethan-1-ol] | > 128 | 32 (≈ 87.8 µM) | – | 140 | – | 16 (≈ 43.9 µM)
C[C@H](O)c1nccn1Cc1cc(-c2ccc(C#C[C@@H]3[C@H]4CN(C(=O)CCN)C[C@@H]34)cc2)on1 [Compound 61, 3-Amino-1-[(1R,5S,6s)-6-({4-[3-({2-[(1S)-1-hydroxyethyl]-1H-imidazol-1-yl}methyl)-1,2-oxazol-5-yl]phenyl}ethynyl)-3-azabicyclo[3.1.0]hexan-3-yl]propan-1-one] | 4 (≈ 8.98 µM) | 16 (≈ 35.9 µM) | – | < 37 | – | 8 (≈ 18 µM)
C[C@H](O)c1nccn1Cc1cc(-c2ccc(C#C[C@@H]3[C@H]4CN(C(=O)CC(C)(C)N)C[C@@H]34)cc2)on1 [Compound 62, 3-amino-1-[(1R,5S,6s)-6-((4-[3-((2-[(1S)-1-hydroxyethyl]-1H-imidazol-1-yl}methyl)-1,2-oxazol-5-yl]phenyl)ethynyl)-3-azabicyclo[3.1.0]hexan-3-yl]-3-methylbutan-1-one] | 8 (≈ 16.9 µM) | 32 (≈ 67.6 µM) | – | < 37 | – | 8 (≈ 16.9 µM)
Cc1cnc([C@H](C)O)n1Cc1cc(-c2ccc(C#CC3(N)CC3)cc2)on1 [Compound 64, (1S)-1-{1-[(5-{4-[(1-Aminocyclopropyl)ethynyl]phenyl}-1,2-oxazol-3-yl)methyl]-5-methyl-1H-imidazol-2-yl}ethan-1-ol] | > 128 | 4 (≈ 11 µM) | – | – | 176 | 2 (≈ 5.52 µM)
C[C@H](O)c1nccn1[C@H](CN)c1cc(-c2ccc(C#C[C@H]3C[C@H](O)C3)cc2)on1 [Compound 70, trans-3-[(4-{3-[(1R)-2-Amino-1-{2-[(1S)-1-hydroxyethyl]-1H-imidazol-1-yl}ethyl]-1,2-oxazol-5-yl}phenyl)ethynyl]cyclobutan-1-ol] | 4 (≈ 10.2 µM) | 1 (≈ 2.55 µM) | – | < 37 | – | 0.25 (≈ 0.637 µM)
